Earlier results as cited in US20200188266A1, “Oral Care Compositions and Methods of Use” (priority 2017, published 2020).

Conditions: DI water at about 35° C.

Structure (SMILES): CC(=O)c1c(O)c(C)c(O)c2c1OC1=CC(=O)C(C(C)=O)C(=O)C12C (stereo not shown) [usnic acid]
- solubility: about 6.3 ppm
